Experimental data as given in US20160311817A1, “HETEROARYL SULTAM DERIVATIVES AS RORc MODULATORS” (Genentech, Inc., priority 2014, published 2016).

What follows are molecules tested against T1, RORc ligand binding domain (Homo sapiens, UniProt P51449) (assay: In Vitro RORc Ligand Binding Assay). Conditions: radioligand 25-[3H]hydroxycholesterol 6 nM; 0.6 ug/mL RORc receptor; 3 h at 25° C.
T1 construct: host or cells: E. coli
T1 sequence (P51449 269-508 limits assumed): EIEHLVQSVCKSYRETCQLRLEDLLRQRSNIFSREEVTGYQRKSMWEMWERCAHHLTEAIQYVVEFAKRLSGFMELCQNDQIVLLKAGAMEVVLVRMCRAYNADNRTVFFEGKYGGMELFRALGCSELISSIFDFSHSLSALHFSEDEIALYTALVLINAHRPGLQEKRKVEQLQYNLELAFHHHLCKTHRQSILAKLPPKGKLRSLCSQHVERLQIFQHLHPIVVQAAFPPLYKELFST
Description: In Vitro RORc Ligand Binding Assay
This assay was used to determine a compound's potency in inhibiting activity of RORc by determining, Kiapp, IC50, or percent inhibition values.
On day of the assay, 100 uL of 0.05% CHAPS (in deionized H2O) was added to all wells of the GFB Unifilter plate and allowed soak for 1 h. A wash buffer of 50 mM HEPES (pH 7.4), 150 mM NaCl, and 5 mM MgCl2 was prepared to wash the filter plate. To prepare an assay buffer, BSA was added to the wash buffer to reach 0.01% and DTT was added to reach 1 mM.
For IC50 mode, 10 mM compound stocks were serially diluted in DMSO with DMSO to give 20× required final concentration in DMSO (15 uL compound+30 uL DMSO). The 20× compound stocks were diluted in DMSO with Assay Buffer 4-fold to reach 5× the final test concentration in 25% DMSO (10 uL compound+30 uL Assay Buffer). Solutions were mixed by aspiration several times with a pipette set on 50 uL volume. For the assay, 10 uL of 5× compound stock solutions in 25% DMSO were added to the assay plate in duplicate.
For two point screening, 10 mM stock compound solutions were diluted in DMSO to obtain 200 uM (20× the high test concentration) and then diluted 10-fold further to reach 20 uM (20× the low test concentration). The 20× stocks were diluted 4-fold with Assay Buffer (10 uL compound+30 uL Assay Buffer) to reach 5× the test concentrations (50 uM and 5 uM) and 10 uL were added to two assay plates for the duplicate wells. With each concentration tested on 2 plates, each set of 80 compounds used 4 assay plates (1 uM and 10 uM, with n=2).
25-hydroxycholesterol (1 uM) was used to determine the level of NSB signal is prepared in DMSO as for compounds above, then diluted in Assay Buffer to give a final concentration of 5 uM. For 25-hydroxycholesterol in 25% DMSO/75% Assay Buffer; 10 uL per well was used for NSB samples. Wells for Total Binding and No Receptor sample determination contained 10 uL of 25% DMSO/75% Assay Buffer per well.
25-[^3H]hydroxycholesterol was dilute in Assay Buffer to obtain 15 nM and vortex to mix. Add 20 uL to all wells to reach 6 nM final in the assay.
Stock receptor solution was diluted in assay buffer to obtain 1.5 ug/mL in Assay Buffer. 20 uL was added to all wells. For No R samples, 20 uL Assay Buffer was substituted for receptor solution.
Assay plates were 96-well polypropylene V-bottom plates. 10 uL of 5× compound in 25% DMSO/75% Assay Buffer was added to Test wells. 10 uL of 25% DMSO/75% Assay Buffer was added to Total Binding or No Receptor wells. 10 uL of 5 uM 25-hydroxycholesterol in 25% DMSO/75% Assay Buffer was added to NSB wells. 20 uL of 15 nM 25-[^3H]hydroxycholesterol prepared in Assay Buffer was added to all wells. 20 uL of 1.5 ug/mL RORc receptor was added to wells (or […] Assay Buffer to No R wells). Following addition to the wells, the plates were incubated 3 h at 25° C.
Using a Packard Filtermate Harvester, the filter plate were washed 4 times following transfer of the incubated samples. Plates were dry-filtered completely (2 h at 50° C. or overnight at room temperature). 50 uL Microscint 0 was added to all wells and read on Topcount protocol Inverted.
Final concentrations were as follows: 50 mM HEPES buffer (pH 7.4); 150 mM NaCl; 1 mM DTT; 5 mM MgCl2, 0.01% BSA; 5% DMSO; 0.6 ug/mL RORc receptor; 6 nM 25-[^3H]hydroxycholesterol. For NSB wells, 1 uM 25-hydroxycholesterol was also present.

`CC1CC[C@H](C)N(Cc2cc(F)c(N3C[C@@H]4C(n5cnnc5)[C@@H]4C3)cc2F)S1(=O)=O` (single isomer, unassigned) [Compound 6] and `C[C@H]1CCCS(=O)(=O)N1Cc1cc(F)c(N2C[C@@H]3C(n4cnnc4)[C@@H]3C2)cc1F` (stereo partly drawn) [Compound 22, (1S,5R,6S)-3-[2,5-Difluoro-4-((S)-3-methyl-1,1-dioxo-[1,2]thiazinan-2-ylmethyl)-phenyl]-6-[1,2,4]triazol-4-yl-3-aza-bicyclo [3.1.0]hexane] are within 1.5-fold of each other in IC50: 0.583 µM for the first, 0.601 µM for the second.

Compared with `CC(=O)N1CCN(c2ccc(CN3[C@@H](C)CCC(c4cccs4)S3(=O)=O)c(F)c2)CC1` (single isomer, unassigned) [Compound 7, 1-{4-[3-Fluoro-4-(3-methyl-1,1-dioxo-6-thiophen-2-yl-[1,2]thiazinan-2-ylmethyl)-phenyl]-piperazin-1-yl}-ethanone], `CC(=O)N1CCN(c2ccc(CN3[C@@H](C)CCC(c4ccsc4)S3(=O)=O)c(F)c2)CC1` (single isomer, unassigned) [Compound 13, 1-{4-[3-Fluoro-4-(3-methyl-1,1-dioxo-6-thiophen-3-yl-[1,2]thiazinan-2-ylmethyl)-phenyl]-piperazin-1-yl}-ethanone] is 6.8-fold higher in IC50: 0.018 µM for the first, 0.123 µM for the second. The first is the more potent here.

`CC(=O)N1CCN(c2ccc(CN3[C@@H](C)CCC(c4ccccn4)S3(=O)=O)c(F)c2)CC1` (single isomer, unassigned) [Compound 17] and `CC(=O)N1CCN(c2ccc(CN3[C@@H](C)CCC(c4ncccn4)S3(=O)=O)c(F)c2)CC1` (single isomer, unassigned) [Compound 10, 1-{4-[3-Fluoro-4-(3-methyl-1,1-dioxo-6-pyrimidin-2-yl-[1,2]thiazinan-2-ylmethyl)-phenyl]-piperazin-1-yl}-ethanone] are within 1.5-fold of each other in IC50: 0.825 µM for the first, 1.1 µM for the second.

`CC(=O)N1CCN(c2ccc(CN3[C@@H](C)CCC(c4cccnc4)S3(=O)=O)c(F)c2)CC1` (single isomer, unassigned) [Compound 14, 1-{4-[3-Fluoro-4-(3-methyl-1,1-dioxo-6-pyridin-3-yl-[1,2]thiazinan-2-ylmethyl)-phenyl]-piperazin-1-yl}-ethanone] and `CC(=O)N1CCN(c2ccc(CN3[C@@H](C)CCC(c4ccncc4)S3(=O)=O)c(F)c2)CC1` (single isomer, unassigned) [Compound 8, 1-{4-[3-Fluoro-4-(3-methyl-1,1-dioxo-6-pyridin-4-yl-[1,2]thiazinan-2-ylmethyl)-phenyl]-piperazin-1-yl}-ethanone] are within 1.5-fold of each other in IC50: 0.87 µM for the first, 1 µM for the second.

Compared with `CC(=O)N1CCN(c2ccc(CN3[C@@H](C)CCC(c4cccnc4)S3(=O)=O)c(F)c2)CC1` (single isomer, unassigned) [Compound 15, 1-{4-[3-Fluoro-4-(3-methyl-1,1-dioxo-6-pyridin-3-yl-[1,2]thiazinan-2-ylmethyl)-phenyl]-piperazin-1-yl}-ethanone], `CC(=O)N1CCN(c2ccc(CN3[C@@H](C)CCC(c4ccncc4)S3(=O)=O)c(F)c2)CC1` (single isomer, unassigned) [Compound 11, 1-{4-[3-Fluoro-4-(3-methyl-1,1-dioxo-6-pyridin-4-yl-[1,2]thiazinan-2-ylmethyl)-phenyl]-piperazin-1-yl}-ethanone] is 1.9-fold lower in IC50: 4.2 µM for the first, 2.2 µM for the second.

`CC1CCC(C2CCCCC2)S(=O)(=O)N1Cc1cc(F)c(N2CC3C(C2)C3n2cnnc2)cc1F` (single isomer, unassigned) [Compound 2, 3-[4-(6-Cyclohexyl-3-methyl-1,1-dioxo-[1,2]thiazinan-2-ylmethyl)-2,5-difluoro-phenyl]-6-[1,2,4]triazol-4-yl-3-aza-bicyclo [3.1.0]hexane] and `CC1CC[C@H](C)N(Cc2cc(F)c(N3C[C@@H]4C(n5cnnc5)[C@@H]4C3)cc2F)S1(=O)=O` (single isomer, unassigned) [Compound 5] are within 1.5-fold of each other in IC50: 0.07 µM for the first, 0.074 µM for the second.

First: CC(=O)N1CCN(c2ccc(CN3[C@@H](C)CCC(c4ncccn4)S3(=O)=O)c(F)c2)CC1 (single isomer, unassigned) [Compound 9, 1-{4-[3-Fluoro-4-(3-methyl-1,1-dioxo-6-pyrimidin-2-yl-[1,2]thiazinan-2-ylmethyl)-phenyl]-piperazin-1-yl}-ethanone]
Second: CC(=O)N1CCN(c2ccc(CN3[C@@H](C)CCC(c4ccccn4)S3(=O)=O)c(F)c2)CC1 (single isomer, unassigned) [Compound 16, 1-{4-[3-Fluoro-4-(3-methyl-1,1-dioxo-6-pyridin-2-yl-[1,2]thiazinan-2-ylmethyl)-phenyl]-piperazin-1-yl}-ethanone]
The IC50 of the first is 2.7-fold higher: 0.792 µM for the first, 0.292 µM for the second. The second is the more potent here.

`CC1CCC(C2CCCCC2)S(=O)(=O)N1Cc1cc(F)c(N2CC3C(C2)C3n2cnnc2)cc1F` (single isomer, unassigned) [Compound 1, 3-[4-(6-Cyclohexyl-3-methyl-1,1-dioxo-[1,2]thiazinan-2-ylmethyl)-2,5-difluoro-phenyl]-6-[1,2,4]triazol-4-yl-3-aza-bicyclo [3.1.0]hexane] and `CC(=O)N1CCN(c2ccc(CN3[C@@H](C)CCC(c4ccsc4)S3(=O)=O)c(F)c2)CC1` (single isomer, unassigned) [Compound 12, 1-{4-[3-Fluoro-4-(3-methyl-1,1-dioxo-6-thiophen-3-yl-[1,2]thiazinan-2-ylmethyl)-phenyl]-piperazin-1-yl}-ethanone] are within 1.5-fold of each other in IC50: 0.043 µM for the first, 0.036 µM for the second.
